Structures can show the parent of a compound that is named as a salt. Where two headings read alike, the source gives them in different places.
Experiments:
[1] = system: platelet rich plasma; assay: Human platelet rich plasma assay (ADP induced platelet aggregation); type: cell-based; conditions: Homo sapiens, Platelet, ADP induced platelet aggregation in human platelet rich plasma; read-out: Human PRP
Procedure, shortened: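 Citrated platelet-rich plasma from aspirin-free healthy human donors was stirred at 37 °C and preincubated with compound for 1 min. Aggregation was then triggered with ADP (added as a 200 uM solution) and recorded photometrically for 3 min. Dose–response curves were built from % inhibition of the maximal saline-control response.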

[2] = system: M21 human melanoma cells; assay: M21 melanoma cell adhesion assay (αvβ3-dependent adhesion to human fibrinogen-coated plates); type: cell-based; conditions: read-out: M21 Melanoma Cells IC50
Method: M21 MELANOMA CELL ADHESION ASSASY
This assay involves an αvβ3-dependent adhesion of M21 human melanoma cells to human fibrinogen-coated plastic tissue culture dishes.
Fibrinogen was purified from human plasma. Fibronectin and plasminogen were eliminated from the preparation by passing the sample over gelatin-sepharose 4B and lysine-sepharose 4B resins, respectively. The fibrinogen is diluted to 10 μg/mL in coating buffer ([…] Tris-HCl, 150 mM NaCl, pH 7.4). 100 μL of diluted fibrinogen is added to each well of a 96-well Immulon 2 microtiter plate (Dynatech; Chantilly, Va.) and allowed to coat overnight at 4° C. Plates are blocked with 1% BSA (Miles/Pentex; Kankakee, Ill.) in adhesion buffer (Hank's balanced salt solution without Ca^++ or Mg^++ [HBSS−−], 50 mM Hepes, 1 mg/mL BSA, pH 7.4) for 1 hour at 37° C.
M21 human melanoma cells were provided by Dr. J. Smith, La Jolla Cancer Research Institute. M21 cells are harvested from tissue culture flasks by washing with HBSS−− and adding cell dissociation solution (Sigma) and incubating for 5 minutes at 37° C. Harvested cells are washed 3 times with adhesion assay buffer containing 200 μM Mn^++. Cells are counted and suspended to a density of 2×10^6/mL in adhesion assay buffer containing 200 μM Mn^++. M21 cells are pre-incubated with antagonists of αvβ3 for 30 minutes at room temperature. Following the pre-incubation, the solutions containing a mixture of cells and antagonists are added to each well of the microtiter plate and allowed to bind for 30 minutes at 37° C.
Following adhesion, plates are gently washed 3 times with 200 μL of wash buffer (50 mM Tris-HCl, 150 mM NaCl, pH 7.4) using large bore pipet tips. Plates are briefly blotted dry and 100 μL of cell lysis buffer (50 mM sodium acetate, pH 5.0, 0.5% Triton X-100, 0.3 mg/mL p-nitrophenyl phosphate [Sigma] is added to each well. Plates are incubated for 60 minutes at 37° C. and 50 μL of 1N NaOH is added to stop the reaction. The absorbance of the wells at […] is read using an automatic plate reader.

[3] = target: T1, Human fibrinogen receptor (αIIbβ3) (Homo sapiens, UniProt P05106+P08514); assay: Purified IIb/IIIa receptor assay (solid phase receptor assay, competition with biotinylated vitronectin); type: binding; conditions: read-out: IIb/IIIa IC50
T1 construct: Human fibrinogen receptor (αIIbβ3) was purified from outdated platelets; from tissue; host or cells: outdated human platelets
T1 sequence (P08514 32-887 limits assumed): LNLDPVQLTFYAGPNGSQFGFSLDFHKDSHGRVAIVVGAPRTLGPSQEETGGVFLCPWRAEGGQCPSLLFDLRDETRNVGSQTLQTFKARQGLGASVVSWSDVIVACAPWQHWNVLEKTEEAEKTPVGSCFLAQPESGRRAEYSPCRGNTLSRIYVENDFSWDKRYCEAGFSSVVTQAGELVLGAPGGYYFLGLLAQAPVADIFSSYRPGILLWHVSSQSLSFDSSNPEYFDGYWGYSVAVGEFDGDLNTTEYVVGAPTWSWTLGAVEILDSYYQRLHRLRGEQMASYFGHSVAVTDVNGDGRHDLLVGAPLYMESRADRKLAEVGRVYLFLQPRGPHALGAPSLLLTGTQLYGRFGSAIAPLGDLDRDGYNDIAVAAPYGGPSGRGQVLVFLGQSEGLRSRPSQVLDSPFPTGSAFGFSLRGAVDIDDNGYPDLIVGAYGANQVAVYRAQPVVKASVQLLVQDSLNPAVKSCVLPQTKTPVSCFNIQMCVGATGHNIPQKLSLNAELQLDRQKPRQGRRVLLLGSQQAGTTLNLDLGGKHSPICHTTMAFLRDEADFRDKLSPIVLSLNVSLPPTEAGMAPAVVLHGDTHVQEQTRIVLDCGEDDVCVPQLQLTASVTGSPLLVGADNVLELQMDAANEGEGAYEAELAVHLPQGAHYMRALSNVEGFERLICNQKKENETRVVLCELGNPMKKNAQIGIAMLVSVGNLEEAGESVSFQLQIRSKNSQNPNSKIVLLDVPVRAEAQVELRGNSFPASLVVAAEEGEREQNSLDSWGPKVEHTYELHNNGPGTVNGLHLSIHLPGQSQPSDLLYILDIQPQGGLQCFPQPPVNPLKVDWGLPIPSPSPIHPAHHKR
T1 sequence (P08514 891-1039 limits assumed): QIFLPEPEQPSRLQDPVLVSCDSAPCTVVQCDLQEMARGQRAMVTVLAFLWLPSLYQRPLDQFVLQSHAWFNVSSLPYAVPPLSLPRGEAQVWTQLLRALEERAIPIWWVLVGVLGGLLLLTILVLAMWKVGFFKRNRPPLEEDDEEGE
T1 sequence (P05106 27-788): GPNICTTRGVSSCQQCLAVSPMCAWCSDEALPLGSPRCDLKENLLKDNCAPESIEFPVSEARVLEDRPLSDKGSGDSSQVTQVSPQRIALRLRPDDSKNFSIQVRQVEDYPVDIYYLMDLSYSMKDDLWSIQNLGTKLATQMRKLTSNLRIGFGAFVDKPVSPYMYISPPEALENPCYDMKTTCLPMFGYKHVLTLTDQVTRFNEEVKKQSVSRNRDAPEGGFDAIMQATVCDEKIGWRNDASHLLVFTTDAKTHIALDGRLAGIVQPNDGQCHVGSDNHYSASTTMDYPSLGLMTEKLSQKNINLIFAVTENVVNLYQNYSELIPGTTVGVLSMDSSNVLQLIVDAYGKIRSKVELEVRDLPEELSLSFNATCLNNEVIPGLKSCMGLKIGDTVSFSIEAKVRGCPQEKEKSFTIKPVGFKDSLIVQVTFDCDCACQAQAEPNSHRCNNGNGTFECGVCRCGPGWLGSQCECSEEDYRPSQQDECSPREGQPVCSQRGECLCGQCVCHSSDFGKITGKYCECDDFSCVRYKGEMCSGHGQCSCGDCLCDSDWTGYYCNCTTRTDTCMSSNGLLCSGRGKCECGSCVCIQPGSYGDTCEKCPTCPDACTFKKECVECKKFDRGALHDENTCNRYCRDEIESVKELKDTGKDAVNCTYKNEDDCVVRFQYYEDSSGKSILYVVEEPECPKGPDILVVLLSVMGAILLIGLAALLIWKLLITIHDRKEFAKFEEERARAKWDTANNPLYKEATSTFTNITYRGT
Procedure, shortened: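 Competition format: 1 nM biotinylated vitronectin plus test compound (highest 1.0×10^−4 M), 2 h at room temperature on wells coated with platelet-derived αIIbβ3. Buffer was TBS containing 1.0 mM Ca, Mg, Mn, pH 7.4. HRP anti-biotin readout at 450 nm; normalized to maximum binding, four-parameter curve fit.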

Compound	IC50 [1]	IC50 ([2]; Homo sapiens, M21)	IC50 [3]	IC50 ([2]; hydrochloride salt)
C#C[C@H](CC(=O)O)NC(=O)CNC(=O)c1cccc(NC2=NCCCCC2)c1 [Example 30, βS-[[2-[[[3-[(3,4,5,6-tetrahydro-2H-azepin-7-yl)amino]phenyl]carbonyl]amino]acetyl]amino]-4-pentynoic acid, trifluoroacetate salt]	> 200000 nM	320 nM	424 nM	–
O=C(O)CC(NC(=O)CNC(=O)c1cccc(NC(=O)NCc2ccccc2)c1)c1cccnc1 (racemic) [Example 47, (±)β-[[2-[[[3-[[[(phenylmethyl)amino]carbonyl]amino]phenyl]carbonyl]amino]acetyl]amino]pyridine-3-propanoic acid, hydrochloride salt]	> 200000 nM	1.18 nM	4270 nM	–
Cc1ccc(C(=O)NCC(=O)NC(CC(=O)O)c2cccnc2)cc1NC(=N)N (racemic) [Example 83, (±)β-[[2-[[[3-[(aminoiminomethyl)amino]-4-methylphenyl]carbonyl]amino]acetyl]amino]pyridine-3-propanoic acid, bis(trifluoroacetate)salt]	> 200000 nM	11 nM	97.7 nM	–
N=C(N)Nc1cccc(C(=O)NCC(=O)NC(CC(=O)O)c2ccc3ccccc3c2)c1 (racemic) [Example 56, (±)β-[[2-[[[3-[(aminoiminomethyl)amino]phenyl]carbonyl]amino]acetyl]amino]naphthalene-2-propanoic acid, trifluoroacetate salt]	> 200000 nM	6.87 nM	65.3 nM	–
N=C(N)Nc1cccc(C(=O)NCC(=O)NC(CC(=O)O)c2ccsc2)c1 (racemic) [Example 59, (±)β-[[2-[[[3-[(aminoiminomethyl)amino]phenyl]carbonyl]amino]acetyl]amino]thiophene-3-propanoic acid, trifluoroacetate salt]	> 200000 nM	24.3 nM	172 nM	–
N=C(N)Nc1cccc(C(=O)NCC(=O)NC(CC(=O)O)c2ccoc2)c1 (racemic) [Example 52, (±)β-[[2-[[[3-[(aminoiminomethyl)amino]phenyl]carbonyl]amino]acetyl]amino]furan-3-propanoic acid, trifluoroacetate salt]	> 200000 nM	11.7 nM	139 nM	–
O=C(O)CC(NC(=O)CNC(=O)c1cccc(NC2=NCCCCC2)c1)c1ccccc1 (racemic) [Example 15, (±)β-[[2-[[[3-[(3,4,5,6-tetrahydro-2H-azepin-7-yl)amino]phenyl]carbonyl]amino]acetyl]amino]benzenepropanoic acid, trifluoroacetate salt]	> 200000 nM	202 nM	3830 nM	–
NC(=S)Nc1cccc(C(=O)NCC(=O)NC(CC(=O)O)c2cccnc2)c1 (stereo not drawn) [Example 114, β-[[2-[[[3-[(aminothioxomethyl)amino]phenyl]carbonyl]amino]acetyl]amino]pyridine-3-propanoic acid, trifluoroacetate salt]	> 200000 nM	200 nM	2940 nM	–
N=C(N)Nc1cccc(C(=O)NCC(=O)NC(CC(=O)O)c2cccs2)c1 (racemic) [Example 61, (±)β-[[2-[[[3-[(aminoiminomethyl)amino]phenyl]carbonyl]amino]acetyl]amino]thiophene-2-propanoic acid, trifluoroacetate salt]	> 200000 nM	228 nM	192 nM	–
NC(=O)Nc1cccc(C(=O)NCC(=O)NC(CC(=O)O)c2cccnc2)c1 (stereo not drawn) [Example 46, β-[[2-[[[3-(aminocarbonylamino)phenyl]carbonyl]amino]acetyl]amino]pyridine-3-propanoic acid, hydrochloride salt]	> 200000 nM	147 nM	1680 nM	–
O=C(O)CC(NC(=O)CNC(=O)c1cccc(NC2=NCCN2)c1)c1cccnc1 (racemic) [Example 10, (±)β-[[2-[[[3-[(4,5-dihydro-1H-imidazol-2-yl)amino]phenyl]carbonyl]amino]acetyl]amino]pyridine-3-propanoic acid, bis(trifluoroacetate)salt]	> 200000 nM	1.82 nM	54.4 nM	–

Other lines, results leading:

IC50 [1]	IC50 ([2]; Homo sapiens, M21)	IC50 [3]	IC50 ([2]; hydrochloride salt)	Compound
> 200000 nM	1040 nM	202 nM	–	N=C(N)Nc1cccc(C(=O)NCC(=O)N[C@@H](CC(=O)O)CS(=O)(=O)c2ccccc2C(=O)O)c1 [Example 71, 2-[[2S-[[2-[[[3-[(aminoiminomethyl)amino]phenyl]carbonyl]amino]acetyl]amino]-2-(carboxymethyl)ethyl]sulfonyl]benzoic acid, TFA salt]
> 200000 nM	52.3 nM	945 nM	–	Cc1ccc(O)c(C(CC(=O)O)NC(=O)CNC(=O)c2cccc(NC(=N)N)c2)c1 (racemic) [Example 88, (±)β-[[2-[[[3-[(aminoiminomethyl)amino]phenyl]carbonyl]amino]acetyl]amino]-2-hydroxy-5-methylbenzenepropanoic acid, trifluoroacetate salt]
> 200000 nM	12.7 nM	58.6 nM	–	N=C(NCc1ccccc1)Nc1cccc(C(=O)NCC(=O)NC(CC(=O)O)c2cccnc2)c1 (racemic) [Example 24, (±)β-[[2-[[[3-[[imino[(phenylmethyl)amino]methyl]amino]phenyl]carbonyl]amino]acetyl]amino]pyridine-3-propanoic acid, bis(trifluoroacetate)salt]
> 200000 nM	13.8 nM	170 nM	–	Cc1ccc(S(=O)(=O)NCC(CC(=O)O)NC(=O)CNC(=O)c2cccc(NC(=N)N)c2)cc1 (stereo not drawn) [Example 65, 3-[[2-[[[3-[(aminoiminomethyl)amino]phenyl]carbonyl]amino]acetyl]amino]-4-[[(4-methylphenyl)sulfonyl]amino]butanoic acid, trifluoroacetate salt]
73300 nM	0.28 nM	9.83 nM	–	N=C(N)Nc1cc(C(=O)NCC(=O)NC(CC(=O)O)c2cccnc2)c2ccccc2c1 (racemic) [Example 8, (±)β-[[2-[[[3-[(aminoiminomethyl)amino]naphthalen-1-yl]carbonyl]amino]acetyl]amino]pyridine-3-propanoic acid, bis(trifluoroacetate)salt]
> 200000 nM	143 nM	1580 nM	–	N=C(N)Nc1cccc(C(=O)NCC(=O)NC(CC(=O)O)c2cc(C(F)(F)F)cc(C(F)(F)F)c2)c1 (racemic) [Example 36, (±)β-[[2-[[[3-[(aminoiminomethyl)amino]phenyl]carbonyl]amino]acetyl]amino]-3,5-bis(trifluoromethyl)benzenepropanoic acid, trifluoroacetate salt]
> 200000 nM	9.32 nM	595 nM	–	O=C(O)CC(NC(=O)CNC(=O)c1cccc(NC2=NCCCCC2)c1)c1cccnc1 (racemic) [Example 12, (±)β-[[2-[[[3-[(3,4,5,6-tetrahydro-2H-azepin-7-yl)amino]phenyl]carbonyl]amino]acetyl]amino]pyridine-3-propanoic acid, bis(trifluoroacetate)salt]
167000 nM	–	39.5 nM	2.54 nM	C#C[C@H](CC(=O)O)NC(=O)CNC(=O)c1cccc(NC(=N)N)c1 [Example 45, 3S-[[2-[[[3-[(aminoiminomethyl)amino]phenyl]carbonyl]amino]acetyl]amino]-4-pentynoic acid, hydrochloride salt]
> 100000 nM	2.51 nM	73.7 nM	–	Cc1ccc(SCCC(CC(=O)O)NC(=O)CNC(=O)c2cccc(NC(=N)N)c2)cc1 (racemic) [Example 66, (±)3-[[2-[[[3-[(aminoiminomethyl)amino]phenyl]carbonyl]amino]acetyl]amino]-5-[(4-methylphenyl)thio]pentanoic acid, trifluoroacetate salt]
57500 nM	0.49 nM	1.89 nM	–	N=C(N)Nc1cccc(C(=O)NCC(=O)NC(CC(=O)O)c2cnc3ccccc3c2)c1 (stereo not drawn) [Example 99, β-[[2-[[[3-[(aminoiminomethyl)amino]phenyl]carbonyl]amino]acetyl]amino]quinoline-3-propanoic acid, bis(trifluoroacetate)salt]

Reference: US6831199B1, “Pyrimidine compounds and derivatives thereof” (G. D. Searle & Co., priority 1995, dated 2004)
